Assay results from patent publication US20070203134A1, “Benzimidazole Acetonitriles” (APPLIED RESEARCH SYSTEMS ARS HOLDING N.V., priority 2004, published 2007).

These molecules were tested on db/db mice (assay: Experimental model of type II diabetes (oral postprandial glycemia in db/db mice)). Settings: 50 mg/kg per os, 4 hrs after drug administration, compared to vehicle treated Group 1.
Assay type: in vivo
Protocol: b) In Vivo Assay: Experimental Model of Type II Diabetes (oral Postprandial Glycemia in db/db Mice)
The following assay aims at determining the anti-diabetic effect of the test compounds of formula (I) in a model of postprandial glycemia in db/db mice, in vivo.
The assay was performed as follows:
A total of 24 db/db mice (about 8-9 weeks; obtained from IFFACREDO, l'Arbreste, France) were fasted during 20 hours.
2 groups, each consisting of 6 animals were formed: • Group 1: The animals were administered (per os) a dose of 10 mg/kg of vehicle. • Group 2: The animals were administered per os) a dose of 50 mg/kg of the test compound according to formula (D.
After oral administration of the compounds of formula (I) solubilized or suspended in CarboxyMethylCellulose (0.5%), Tween 20 (0.25%) and water as vehicle, the animals had access to commercial food (D04, UAR, Villemoisson/Orge, France) ad libitum. The diabetic state of the mice was verified by determining the blood glucose level before drug administration. Blood glucose and serum insulin levels were then determined 4 hrs after drug administration.
The determination of the blood glucose level was performed using a glucometer (Precision Q.I.D., Medisense, Abbot, ref. 212.62.31). […]
Changes in blood glucose and serum insulin of drug treated mice were expressed as a percentage of control (group 1: vehicle treated mice).
With `CCN1/C(=C(\C#N)c2nc(NC3CCC3)ncc2C)Nc2ccccc21` [Example 3] the “blood glucose level reduced” value was “about 28%”.

Same assay, conditions: serum insulin, 50 mg/kg per os, 4 hrs after drug administration, compared to vehicle treated Group 1
In the case of `CCN1/C(=C(\C#N)c2nc(NC3CCC3)ncc2C)Nc2ccccc21` [Example 3], the insulin level reduced is reported as “about 58%”.

These molecules were tested against human GSK3 beta (Homo sapiens, UniProt P49841) (assay: GSK3β in vitro kinase assay (33P-ATP phosphorylation of phospho GS2 peptide)). Settings: in vitro potency, read-out: IC50 (μM) GSK3beta.
Chain of human GSK3 beta (P49841 whole entry): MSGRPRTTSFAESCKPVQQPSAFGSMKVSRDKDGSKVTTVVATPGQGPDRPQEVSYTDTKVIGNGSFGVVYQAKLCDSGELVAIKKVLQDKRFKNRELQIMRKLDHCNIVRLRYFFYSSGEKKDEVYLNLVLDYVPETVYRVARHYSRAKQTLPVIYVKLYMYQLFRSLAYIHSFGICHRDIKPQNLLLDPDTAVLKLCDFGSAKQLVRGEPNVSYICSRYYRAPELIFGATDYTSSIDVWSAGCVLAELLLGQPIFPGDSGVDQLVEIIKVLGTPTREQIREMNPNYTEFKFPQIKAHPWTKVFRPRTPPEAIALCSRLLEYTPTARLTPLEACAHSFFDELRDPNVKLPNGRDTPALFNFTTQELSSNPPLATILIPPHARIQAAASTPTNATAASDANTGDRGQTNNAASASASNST
Assay type: biochemical
Protocol: GSK3β Assay (see Bioorg. Med. Chem. Lett by Naerum et al. 12 p. 1525-1528 (2002))
In a final reaction volume of 25 μl, GSK3β (h) (5-10 mU) is incubated with 8 mM MOPS pH 7.0, 0.2 mM EDTA, 20 μM […](p)EDEEE (being the GSK3 substrate; a phospho GS2 peptide), 10 mM Mg Acetate and [γ-^33P-ATP] (Specific activity approx. 500 cpm/pmol, concentration as required). The reaction is initiated by the addition of Mg^2+ [γ-^33P-ATP]. After incubation for 40 minutes at room temperature, the reaction is stopped by the addition of 5 μl of a 3% phosphoric acid solution. 10 μl of the reaction is then spotted onto a P30 filtermat and washed three times for 5 minutes in 50 mM phosphoric acid and once in methanol prior to drying and the degree of phosphorylation of the substrate is determined by scintillation counting.
Work on `CCN1/C(=C(\C#N)c2nc(NC3CCCCCC3)ncc2C)Nc2ccccc21` [Example 12, (2Z)-[2-(cycloheptylamino)-5-methylpyrimidin-4-yl](1-ethyl-1,3-dihydro-2H-benzimidazol-2-ylidene)acetonitrile] yielded an IC50 of under 10 µM. Molecule `N#C/C(=C1/Nc2ccccc2N1C1CCC1)c1ccnc(NCCCN2CCCC2=O)n1` [Example 15, (2Z)-(1-cyclobutyl-1,3-dihydro-2H-benzimidazol-2-ylidene)(2-{[3-(2-oxopyrrolidin-1-yl)propyl]amino}pyrimidin-4-yl)acetonitrile] has an IC50 of under 10 µM. Work on `Cc1cnc(NC2CCCC2)nc1C(C#N)=C1Nc2ccccc2N1` [Example 28, [2-(cyclopentylamino)-5-methylpyrimidin-4yl](1,3-dihydro-2H-benzimidazol-2-ylidene)acetonitrile] yielded an IC50 of under 10 µM. Molecule `CCN1/C(=C(\C#N)c2cc(NCCc3cccnc3)ncn2)Nc2ccccc21` [Example 46] has an IC50 of under 10 µM. For `CCN1/C(=C(\C#N)c2nc(NC(=O)CCCNC(=O)OC(C)(C)C)ncc2C)Nc2ccccc21` [Example 73, tert-butyl[4-({4-[(Z)-cyano(1-ethyl-1,3-dihydro-2H-benzimidazol-2-ylidene)methyl]-5-methylpyrimidin-2-yl}amino)-4oxobutyl]carbamate], the IC50 was under 10 µM. `CCN1/C(=C(\C#N)c2nc(NC(=O)Cc3ccccc3OC)ncc2C)Nc2ccccc21` [Example 79, N-{4-[(Z)-cyano(1-ethyl-1,3-dihydro-2H-benzimidazol-2-ylidene)methyl]-5-methylpyrimidin-2-yl}-2-(2-methoxyphenyl)acetamide] gave an IC50 of under 10 µM. Work on `CCN1/C(=C(\C#N)c2nc(NC(=O)C3CN(C(=O)OC(C)(C)C)CCO3)ncc2C)Nc2ccccc21` (stereo not drawn) [Example 84, tert-butyl 2-[({4-[(Z)-cyano(1-ethyl-1,3-dihydro-2H-benzimidazol-2-ylidene)methyl]-5-methylpyrimidin-2-yl}amino)carbonyl]morpholine-4-carboxylate] yielded an IC50 of under 10 µM.
